Reference: patent publication US8124121B2, “Flavors, flavor modifiers, tastants, taste enhancers, umami or sweet tastants, and/or enhancers and use thereof” (Senomyx, Inc., priority 2003, dated 2012)
Blank lines part the entries; values can stand above or below the compound they belong to.

Legend:
[1] = target: T1, hT1R1/hT1R3 umami receptor (Homo sapiens, UniProt Q7RTX0+Q7RTX1); assay: Umami taste enhancement activity assay (EC50 ratio vs. MSG); format: cell-based
T1 construct: expressed in transfected cells; host or cells: HEK293 derivative stably expressing Gα15, clone I-17, expression induced with mifepristone
T1 sequence (Q7RTX1 21-841): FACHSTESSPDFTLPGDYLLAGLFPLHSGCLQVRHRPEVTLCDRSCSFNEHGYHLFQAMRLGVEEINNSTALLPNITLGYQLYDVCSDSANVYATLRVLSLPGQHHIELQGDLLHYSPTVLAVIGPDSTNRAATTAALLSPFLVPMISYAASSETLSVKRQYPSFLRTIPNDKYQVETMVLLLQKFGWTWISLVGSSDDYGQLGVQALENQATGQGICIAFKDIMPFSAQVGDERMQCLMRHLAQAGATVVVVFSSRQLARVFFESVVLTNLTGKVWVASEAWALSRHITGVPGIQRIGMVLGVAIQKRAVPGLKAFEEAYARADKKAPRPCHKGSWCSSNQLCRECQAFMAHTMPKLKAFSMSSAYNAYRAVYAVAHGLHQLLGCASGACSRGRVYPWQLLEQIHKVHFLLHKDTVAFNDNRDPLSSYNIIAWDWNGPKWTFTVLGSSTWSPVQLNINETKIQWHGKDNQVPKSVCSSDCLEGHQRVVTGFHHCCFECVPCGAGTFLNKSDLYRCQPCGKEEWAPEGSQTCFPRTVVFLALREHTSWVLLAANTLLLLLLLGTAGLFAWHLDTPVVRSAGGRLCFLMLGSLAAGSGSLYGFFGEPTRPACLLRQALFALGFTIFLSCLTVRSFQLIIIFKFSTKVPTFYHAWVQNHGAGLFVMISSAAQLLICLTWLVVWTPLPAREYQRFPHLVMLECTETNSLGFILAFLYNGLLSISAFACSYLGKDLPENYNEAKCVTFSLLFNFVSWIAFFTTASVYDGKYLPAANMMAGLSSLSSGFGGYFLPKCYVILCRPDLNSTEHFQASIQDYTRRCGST
T1 sequence (Q7RTX0 21-852): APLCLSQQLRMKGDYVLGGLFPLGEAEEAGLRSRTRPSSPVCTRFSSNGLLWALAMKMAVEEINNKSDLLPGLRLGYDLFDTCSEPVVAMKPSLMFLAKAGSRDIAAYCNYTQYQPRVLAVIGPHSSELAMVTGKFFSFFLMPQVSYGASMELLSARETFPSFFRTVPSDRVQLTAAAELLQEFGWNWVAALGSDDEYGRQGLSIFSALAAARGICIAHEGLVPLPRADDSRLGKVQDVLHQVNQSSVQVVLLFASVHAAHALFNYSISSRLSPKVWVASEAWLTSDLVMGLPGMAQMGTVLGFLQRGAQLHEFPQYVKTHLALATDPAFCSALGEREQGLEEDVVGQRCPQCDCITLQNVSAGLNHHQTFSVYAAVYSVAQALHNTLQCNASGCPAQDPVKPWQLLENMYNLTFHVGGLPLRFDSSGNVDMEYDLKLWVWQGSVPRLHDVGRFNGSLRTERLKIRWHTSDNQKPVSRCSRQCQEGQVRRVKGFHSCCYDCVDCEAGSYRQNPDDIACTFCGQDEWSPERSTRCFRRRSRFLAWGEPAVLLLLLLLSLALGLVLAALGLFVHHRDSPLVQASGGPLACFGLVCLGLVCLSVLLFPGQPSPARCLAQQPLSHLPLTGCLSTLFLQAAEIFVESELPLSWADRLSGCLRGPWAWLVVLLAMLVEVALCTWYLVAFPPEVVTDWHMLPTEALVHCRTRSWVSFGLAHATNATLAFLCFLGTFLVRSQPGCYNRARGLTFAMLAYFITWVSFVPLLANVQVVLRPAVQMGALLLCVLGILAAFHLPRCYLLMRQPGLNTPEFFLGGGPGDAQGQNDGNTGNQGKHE
Experimental: A series of measurements of the dose response is run in solutions comprising MSG alone, then a second dose response is run with MSG in combination with predetermined amounts of a candidate compound of Formula (I) at the same time.
Typical compound concentrations tested were 30 μM, 10 μM, 3 μM, 1 μM, 0.3 μM, 0.1 μM and 0.03 μM. The relative efficacy of compounds of Formula (I) at enhancing the receptor was determined by calculating the magnitude of a shift in the EC50 for monosodium glutamate. Enhancement was defined as a ratio (EC50R) corresponding to the EC50 of monosodium glutamate, determined in the absence of the test compound, divided by the EC50 of monosodium glutamate, determined in the presence of the test compound.
Stated alternatively, “EC50 ratio” as compared to MSG is calculated based on the following definitions: EC50 Ratio vs. MSG=EC50 (MSG)/EC50(MSG+[Compound]) • wherein “[compound]” refers to the concentration of the compound of Formula (I) used to elicit (or enhance or potentiate) the MSG dose response.

[2] = test system: savory taste, human panelists; assay: Umami/savory flavor experiments using human panelists (trained panel, difference from reference); format: in vivo; details: 12 mM MSG + cpd vs reference 12 mM MSG + 100 μM IMP
Experimental: General Panelist Selection: Basic screening of sensory taste testers: Potential panelists were tested for their abilities to rank and rate intensities of solutions representing the five basic tastes. Panelists ranked and rated intensity of five different concentrations of each of the five following compounds: sucrose (sweet), sodium chloride (salty), citric acid (sour), caffeine (bitter), and monosodium glutamate (savory). In order to be selected for participation in testing, panelists needed to correctly rank and rate samples for intensity, with a reasonable number of errors
Preliminary Taste Tests: The panelists selected in the above procedure were deemed qualified for performing Preliminary Taste Testing procedures. The preliminary taste tests are used to evaluate new compounds for intensity of basic tastes and off-tastes. A small group of panelists (n=5) taste approximately 5 concentrations of the compound (range typically between 1-100 μM, in half-log cycles, e.g., 1, 3, 10, 30, and 100 μM) in water and in a solution of 12 mM MSG to evaluate enhancement. Panelists rate the five basic tastes (sweet, salty, sour, bitter, and savory) as well as off-tastes (such as chemical, metallic, sulfur) on a labeled magnitude scale. Samples are served in 10 mL portions at room temperature. The purpose of the test is to determine the highest concentration at which there is no objectionable off-taste, and determine if obvious savory taste or enhancement of savory taste exists at any of the concentrations tested.
Trained Panelist Selection: A trained expert panel was used to further evaluate compounds that had been tested with the preliminary taste test.
Panelists for the trained panel were selected from the larger group of qualifying taste panelists. Panelists were further trained on savory taste by ranking and rating experiments using MSG and IMP combinations. Panelists completed a series of ranking, rating, and difference from reference tests with savory solutions. In ranking and rating experiments, panelists evaluated easy MSG concentrations (0, 6, 18, 36 mM) and more difficult MSG concentrations (3, 6, 12, 18 mM MSG) in water.
Compound testing with Trained Panel: Compounds tested by the trained panel were evaluated in difference from reference experiments. […] Test samples were solutions with varying amounts of MSG, IMP, and the compound.
Compounds were tested against the reference in samples with and without 12 mM MSG. All samples were presented in 10 ml volumes at room temperature. Two sessions were completed for each compound tested to evaluate panel reproducibility.

[3] = test system: sweet taste, human panelists; assay: Sweet flavor and sweet flavor enhancement measurement using human panelists; format: in vivo
Experimental: Overview: Various concentrations of the experimental compound (normally aqueous solutions containing 1, 3, 10, and 30 uM concentrations of the experimental compound; and optionally 50 uM and/or 100 uM concentrations) are individually tasted by trained human subjects and rated for intensity of several taste attributes. The experimental compound may also be tasted when dissolved in a “key tastant” solution.
Procedure: An appropriate quantity of the experimental compound is dissolved in water typically also containing 0.1% ethanol, which is utilized to aid initial dispersion of the compound in the aqeuous stock solution. When appropriate, the experimental compound may also be dissolved in aqueous solutions of a “key tastant” (for example, 4% sucrose, 6% sucrose, 6% fructose/glucose, or 7% fructose/glucose, at pH 7.1 or 2.8).
Five human Subjects are used for preliminary taste tests. […] Subjects refrain from eating or drinking (except water) for at least 1 hour prior to the test. Subjects eat a cracker and rinse with water four times to clean the mouth before taste tests.
The aqueous solutions are dispensed in 10 ml volumes into 1 oz. sample cups and served to the Subjects at room temperature. Samples of the experimental compound dissolved in an appropriate key tastant (e.g., 4% sucrose, 6% fructose, or 6% fructose/glucose, typically at pH 7.1) at various concentrations of the experimental compound may also be served to the Subjects. Subjects also receive a reference sample of the key tastant (e.g., sucrose, fructose, or fructose/glucose, typically at pH 7.1) at different concentrations for comparison.
Subjects taste the solutions, starting with the lowest concentration, and rate intensity of the following attributes on the Labeled Magnitude Scale (LMS) for sweetness, saltiness, sourness, bitterness, savory (umami), and other (off-taste). Subjects rinse three times with water between tastings. If a particular concentration elicits an undesirable characteristic or off-taste, subsequent tastings of higher concentrations are eliminated. After a break, Subjects taste a solution of the key tastant (e.g., 4% sucrose, 6% fructose, or 6% fructose/glucose, typically at pH 7.1) without the experimental compound. Then solutions of the key tastant plus experimental compound are tasted in increasing order of concentration. The key tastant solution can be retasted for comparison with key tastant+experimental compound solutions if necessary. Discussion among panelists is permitted.
Subjects rate the difference in intensity of the test sample compared to the reference sample for the key attribute on a scale of −5 (much less sweet than the reference) to +5 (much more sweet than the reference). A score of 0 indicates the test sample is equally as sweet as the reference. […]

EC50 ratio (enhanced the effectiveness of monosodium glutamate) ([1]; compound present at 0.03 μM): 6.92
SMILES: CCCC(CCC)NC(=O)c1ccc2c(c1)OCO2 [Example 1, N-(heptan-4-yl)benzo[d][1,3]dioxole-5-carboxamide]
Taste Data: concentration of cpd with 12 mM MSG that is as strong as 12 mM MSG + 100 μM IMP [2]: 12 mM MSG + 3 μM cpd as strong as

EC50 ratio (enhanced the effectiveness of monosodium glutamate) ([1]; compound present at 0.1 μM): 4.9
SMILES: COC(=O)[C@@H](CC(C)C)NC(=O)c1ccc2c(c1)OCO2 [Example 6, (R)-methyl 2-(benzo[d][1,3]dioxole-6-carboxamido)-4-methylpentanoate]
Taste Data: concentration of cpd with 12 mM MSG that is as strong as 12 mM MSG + 100 μM IMP [2]: 12 mM MSG + 10 μM cpd as strong as

SMILES: COC[C@@H](CC(C)C)NC(=O)c1ccc(C)c(C)c1 [Example 71, (R)—N-(1-methoxy-4-methylpentan-2-yl)-3,4-dimethylbenzamide]
Taste Data: concentration of cpd with 12 mM MSG that is as strong as 12 mM MSG + 100 μM IMP [2]: 12 mM MSG + 3 μM cpd as strong as

SMILES: COC(=O)[C@@H](CC(C)C)NC(=O)c1cc(C)c(C)o1 [Example 98, (R)-methyl-2-(2,3-dimethylfuran-5-carboxamido)-4-methylpentanoate]
Taste Data: concentration of cpd with 12 mM MSG that is as strong as 12 mM MSG + 100 μM IMP [2]: 12 mM MSG + 10 μM cpd as strong as

SMILES: COC[C@@H](CC(C)C)NC(=O)c1ccc(OC)c(C)c1 [Example 104, 4-Methoxy-N-(1-methoxymethyl-3-methyl-butyl)-3-methyl-benzamide]
Taste Data: concentration of cpd with 12 mM MSG that is as strong as 12 mM MSG + 100 μM IMP [2]: 12 mM MSG + 3 μM cpd as strong as

EC50 ratio (enhanced the effectiveness of monosodium glutamate) ([1]; compound present at 0.3 μM): 6.51
SMILES: COc1ccc(CNC(=O)C(=O)NCCc2ccccn2)c(OC)c1 [Example 123, N-(2,4-Dimethoxy-benzyl)-N′-(2-pyridin-2-yl-ethyl)-oxalamide]
Taste Data: concentration of cpd with 12 mM MSG that is as strong as 12 mM MSG + 100 μM IMP [2]: 12 mM MSG + 1 μM cpd as strong as

SMILES: Cc1c(F)c(F)c(C(=O)NC2CCCCC2C)c(F)c1F (stereo not drawn) [Example 162, 2,3,5,6-tetrafluoro-4-methyl-N-(2-methylcyclohexyl)benzamide]
Perceived Equivalent Sweet Solution ([3]; 10 uM compound + 6% fructose/glucose, pH 7.1): ≥ 8% fructose/glucose | Perceived Equivalent Sweet Solution ([3]; 10 uM compound + 7% fructose/glucose, pH 2.8): ≥ 9% fructose/glucose

SMILES: Cc1cccc(C)c1C(=O)NC1CCCCC1C (stereo not drawn) [Example 168, 2,6-dimethyl-N-(2-methylcyclohexyl)benzamide]
Perceived Equivalent Sweet Solution ([3]; 30 uM compound + 6% fructose/glucose, pH 7.1): Equal to 8% fructose/ % fructose/glucose

SMILES: O=C(Nc1ccc2c(c1)OCO2)N1Cc2ccccc2C1 [Example 174, N-(3,4-methylenedioxyphenyl)isoindoline-2-carboxamide]
Perceived Equivalent Sweet Solution ([3]; 50 uM compound + 4% sucrose, pH not measured or controlled): 6% sucrose

Ec50 ratio (vs. MSG) ([1]; Table D, compound @ 0.3 uM): 2.7
SMILES: CCOc1ccc(/C=C/C(=O)NC(C)CC)cc1 (stereo not drawn) [Example D13, (E)-N-sec-butyl-3-(4-ethoxyphenyl)acrylamide]

Umami EC50 ratio ([1]; Table E, compound concentration not given): 10.66
SMILES: CC1CCCCC1NC(=O)c1ccc(Cl)c(Cl)c1 (stereo not drawn) [Example E54, 3,4-dichloro-N-(2-methylcyclohexyl)benzamide]
